Test results published in ChEMBL document CHEMBL3045493, “Synthesis and antifungal activity of novel 2,5-disubstituted-1,3,4-oxadiazoles containing benzimidazole moiety” (J Pestic Sci, 2012).
≈ marks a conversion by molar mass, not a printed value.

Assays:
Botrytis cinerea = test: Antifungal activity against benzimidazole moderately resistant Botryotinia fuckeliana BC-JfC02 assessed as inhibition of mycelium growth after 3 days followed by 96 hr incubation in light incubator; type: functional, organism-based
Sclerotinia sclerotiorum = test: Antifungal activity against benzimidazole-sensitive Sclerotinia sclerotiorum SS-JSZ01 assessed as inhibition of mycelium growth after 3 days followed by 96 hr incubation in light incubator; type: functional, organism-based

Structure (SMILES)	EC50 (Botrytis cinerea) [µg/mL]	EC50 (Sclerotinia sclerotiorum) [µg/mL]
CSc1nnc(-c2nc3ccccc3[nH]2)o1	10.6 (≈ 45.5 µM)	2.04 (≈ 8.78 µM)
Clc1ccc(CSc2nnc(-c3nc4ccccc4[nH]3)o2)cc1	14.8 (≈ 43.3 µM)	9.1 (≈ 26.5 µM)
CCCCSc1nnc(-c2nc3ccccc3n2Cc2ccc(F)cc2)o1	6.26 (≈ 16.4 µM)	0.94 (≈ 2.46 µM)
CCSc1nnc(-c2nc3ccccc3n2Cc2ccc(F)cc2)o1	3.08 (≈ 8.69 µM)	8.86 (≈ 25 µM)
CC(C)Sc1nnc(-c2nc3ccccc3[nH]2)o1	24.1 (≈ 92.8 µM)	23.4 (≈ 89.8 µM)
Clc1ccc(CSc2nnc(-c3nc4ccccc4[nH]3)o2)c(Cl)c1	16.4 (≈ 43.4 µM)	22.7 (≈ 60.3 µM)
Fc1ccc(Cn2c(-c3nnc(SCc4ccc(Cl)cc4Cl)o3)nc3ccccc32)cc1	7.81 (≈ 16.1 µM)	0.55 (≈ 1.13 µM)
CCCSc1nnc(-c2nc3ccccc3[nH]2)o1	16.6 (≈ 63.6 µM)	18.2 (≈ 70 µM)
Fc1ccc(Cn2c(-c3nnc(SCc4ccccc4)o3)nc3ccccc32)cc1	1.31 (≈ 3.15 µM)	0.04 (≈ 0.096 µM)
CC(C)Sc1nnc(-c2nc3ccccc3n2Cc2ccc(F)cc2)o1	11.4 (≈ 30.9 µM)	10.2 (≈ 27.5 µM)
CCCSc1nnc(-c2nc3ccccc3n2Cc2ccc(F)cc2)o1	5.63 (≈ 15.3 µM)	2.03 (≈ 5.51 µM)
Fc1ccc(CSc2nnc(-c3nc4ccccc4[nH]3)o2)cc1	12.8 (≈ 39.1 µM)	20.5 (≈ 62.7 µM)
CCSc1nnc(-c2nc3ccccc3[nH]2)o1	2.7 (≈ 11 µM)	1.31 (≈ 5.32 µM)
c1ccc(CSc2nnc(-c3nc4ccccc4[nH]3)o2)cc1	18.4 (≈ 59.6 µM)	22.9 (≈ 74.4 µM)
CCCCSc1nnc(-c2nc3ccccc3[nH]2)o1	9.86 (≈ 35.9 µM)	9.12 (≈ 33.2 µM)
Fc1ccc(Cn2c(-c3nnc(SCc4ccc(Cl)cc4)o3)nc3ccccc32)cc1	6.07 (≈ 13.5 µM)	0.43 (≈ 0.954 µM)
CSc1nnc(-c2nc3ccccc3n2Cc2ccc(F)cc2)o1	14 (≈ 41 µM)	12.4 (≈ 36.3 µM)
COC(=O)Nc1nc2ccccc2[nH]1 [CARBENDAZIM]	7.4 (≈ 38.7 µM)	0.13 (≈ 0.68 µM)
Fc1ccc(CSc2nnc(-c3nc4ccccc4n3Cc3ccc(F)cc3)o2)cc1	13.9 (≈ 32.1 µM)	7.52 (≈ 17.3 µM)
